Read-outs that look alike come from different tables or passages of the source.
Columns and labels:
[1] = tested on: electrochemically active bacteria in the sludge
Text: The sample enters into the anode part after passing through the first and the second pretreatment tanks(2,3). The anode part is composed of a carbon felt and platinum(Pt) wire, while its inside part is filled usually with a microorganism catalyst which generates electrochemical energy using organic raw material. The cathode part is filled with ordinary water. Namely, the sample containing organic materials enters into the anode and the water-saturated with air enters the cathode. Now the organic materials are decomposed by microorganism at the anode part of the fuel cell and a current is generated. The current moves along the Pt wire and is measured by the voltmeter.
Active sludge was introduced into the anode part so that the electrochemically active bacteria in the sludge are attached to the electrode and densely cultured. To the cathode part, water saturated with air was incorporated, keeping a certain potential difference so as to make an efficient biological electrochemical reaction occur in the microbial fuel cell. Into this microbial fuel cell, added were glucose and glutamic acid(CODcr 200 ppm, which means the chemical oxygen demand due to the potassium dichromate) as fuel and the generated current was measured by the volt meter(2000 multimeter, Keithley Instrument. Inc, USA) at 60 seconds interval, while adding to the used fuel cell, Cr^6+ standard solution successively in the concentration of 0.01 ppm, 0.02 ppm, 0.03 ppm, 0.04 ppm and 0.05 ppm.

golden dace = conditions: 8 ppm phenol introduced to water; cited from earlier work
[2] = microbial fuel cell with active sludge, fuel glucose and glutamic acid (CODcr 200 ppm), standard solution added successively at 0.01-0.05 ppm, current measured at 60 seconds interval

[Cr+6] [Cr^6+]
concentration at which the constantly generated current showed a sharp drop [1, 2]: 0.04 ppm

[Pb] [Pb, lead]
concentration at which the constantly generated current showed a sharp drop [1, 2]: 0.04 ppm

Oc1ccccc1 [phenol]
time required to determine the toxicity using fish (golden dace): 8 h | concentration at which the constantly generated current showed a sharp drop [1]: 0.03 ppm

— patent US20050164331A1, “Method and device for detecting toxic material in water using microbial fuel cell” (priority 2002, published 2005)
